Tests used:
Format in all cases: cell-based
[1] = test system: PBRM1 binding to CDKN1A; assay: ChIP-qPCR, Flag antibody (Flag-PBRM1), CDKN1A gene, RCC4 cells; set-up: unit not given here; details: 100 μM, 24 h
Protocol: Lysates were analyzed by immunoblots. c RCC4 cells with or without p53 KO were transfected with vector or Flag-PBRM1 at the indicated amounts. […] Cells were harvested for RT-qPCR (g) or ChIP followed by qPCR (h). […] Representative data is shown in i. Quantification of cell cycle phase is shown in j. Source data are provided as a Source Data file.
ChIP assays were performed with the Pierce Agarose ChIP Kit (26156, Thermo Scientific) according to the manufacturer’s instructions with minor revisions. In brief, samples were crosslinked with 1% paraformaldehyde and halted by 125 mM glycine. After washing twice with ice-cold PBS, cells were harvested and suspended in Lysis Buffer 1 and incubated on ice for 10 min. 1 × 10^7 nuclei were resuspended in 500 μl MNase Digestion Buffer containing 6.25 U Micrococcal Nuclease and incubated at 37 °C for 15 min. After the reaction was stopped, nuclei were pelleted by centrifugation and resuspended in 250 μl Lysis Buffer 2. Nuclei were sonicated at 10% amplitude for 10 s twice and incubated on ice for 30 min. After centrifugation, 50 μl supernatant containing the digested chromatin from 2 × 10^6 nuclei was diluted in 1× IP Dilution Buffer and incubated with antibodies (normal rabbit IgG for control, 1 μg FL393 + 1 μg DO-1 for p53 or 2 μg Flag M2 for Flag-PBRM1) overnight at 4 °C. […] of ChIP Grade Protein A/G Plus Agarose was added and incubated for 1 h at 4 °C. The agarose resins were washed once with IP Wash Buffer 1, twice with IP Wash Buffer 2 and once with IP Wash Buffer 3. 150 μl 1× IP Elution Buffer was added to the washed resin and incubated at 65 °C for 30 min with shaking. The eluate was treated with Proteinase K and DNA was extracted with columns provided in the kit.

[2] = test system: PBRM1-p53 interaction; assay: Co-immunoprecipitation of Flag-PBRM1 and Myc-p53 (anti-Flag M2) in H1299 cells
From the text: Fig. 1 PBRM1 and p53 display a physical association that is enhanced after DNA damage. a U2OS cells (left) and HEK293T cells (right) were transfected with vector or Flag-PBRM1 and harvested for immunoprecipitation with Flag-M2 beads and elution with 3X Flag peptide. […] Lysates were subjected to immunoprecipitation with Flag-M2 beads. […] Lysates were immunoprecipitated with p53 antibody. The bound PBRM1 and p53 were examined by immunoblots. Source data are provided as a Source Data file.
For anti-Flag immunoprecipitation, cell pellets harvested from one 10 cm culture dish were resuspended in 500 µl hypotonic buffer (10 mM Tris-HCl, pH 8.0, 1.5 mM MgCl2, 10 mM KCl) with protease and phosphatase inhibitors, 2 μM TSA and 10 mM NAM, and samples were incubated on ice for 15 min. Twenty-five microliters of Triton X-100 was added and samples were vortexed for 10 s. After centrifuging for 30 s at 14,000 × g, supernatants were removed and pellets were resuspended in 100 µl hypertonic buffer (20 mM Tris-HCl pH 8.0, 420 mM KCl, 1.5 mM MgCl2, 20% (v/v) glycerol) with protease and phosphatase inhibitors, 2 μM TSA and 10 mM NAM and vortexed for 10 s. Pellets were incubated on ice for 40 min and vortexed for 15 s every 10 min. After centrifuging for 10 min at 14,000 × g, supernatants were collected and diluted with 300 µl EBC buffer (50 mM Tris-HCl (pH 7.5), 120 mM NaCl, 0.5% NP-40) with protease and phosphatase inhibitors, 2 μM TSA and 10 mM NAM. […] Beads were washed four times with EBC buffer and eluted with 3X Flag peptide (F4799, Sigma-Aldrich) overnight at 4 °C. The input and Flag-elution were analyzed by SDS-PAGE and immunoblot.
Supplementary Figure 2. […]
a. Vectors, Flag-PBRM1 or Myc-p53 were transfected into H1299 cells as indicated, and treated with 5 µM nicotinamide or vehicle. Lysates were used for anti-Flag immunoprecipitation and 3X Flag peptide elution. The inputs and eluates were immunoblotted with the indicated antibodies. […]
Flag-PBRM1, wildtype or K382Q mutated Myc-p53 were transfected into H1299 cells with indicated combinations. Lysates were used for anti-Flagimmunoprecipitation followed by Flag peptide elution. […]

[3] = test system: endogenous PBRM1 and p53; assay: Endogenous p53 immunoprecipitation, kidney cancer cell lines; details: ACHN, Caki-1 and Ren-01; 50 μM, 8 h
Protocol: For endogenous p53 immunoprecipitations, cell pellets were lysed in EBC buffer with protease and phosphatase inhibitors, 2 μM TSA and 10 mM NAM. Lysates (approximately 2 mg of total protein) were incubated with 2 μg p53 antibody (DO-1) overnight at 4 °C followed by incubation with protein A/G plus Sepharose (sc-2003, Santa Cruz Biotechnology) for 2 h. Beads were washed with EBC buffer four times, mixed with 1X SDS loading buffer (1% mercaptoethanol, 0.01% Bromophenol blue, 6% Glycerol, 2% SDS, 50 mM Tris-Cl (pH 6.8)) and analyzed by SDS-PAGE and immunoblot.
Supplementary Figure 1. Endogenous PBRM1 and p53 physically associate in kidney […]
μM) for 8 h and harvested for immunoprecipitation with control IgG and p53 antibodies. The bound PBRM1 and p53 were examined by immunoblots. Source data are provided as a Source […]
(1 picture or pasted object on this page, not shown here)

COc1cc([C@@H]2c3cc4c(cc3[C@@H](O[C@@H]3O[C@@H]5CO[C@@H](C)O[C@H]5[C@H](O)[C@H]3O)[C@H]3COC(=O)[C@H]23)OCO4)cc(OC)c1O [Etoposide]
Flag ChIP at CDKN1A-RE1 ([1]; RCC4-GFP, assay 1): 0.0131
Flag ChIP at CDKN1A-TSS ([1]; RCC4-GFP, assay 1): 0.013
Flag ChIP at CDKN1A-intron ([1]; RCC4-GFP, assay 1): 0.0279
Flag ChIP at CDKN1A-RE1 ([1]; RCC4-GFP, assay 2): 0.0381
Flag ChIP at CDKN1A-TSS ([1]; RCC4-GFP, assay 2): 0.0086
Flag ChIP at CDKN1A-intron ([1]; RCC4-GFP, assay 2): 0.0296
Flag ChIP at CDKN1A-RE1 ([1]; RCC4-GFP, assay 3): 0.0109
Flag ChIP at CDKN1A-TSS ([1]; RCC4-GFP, assay 3): 0.0269
Flag ChIP at CDKN1A-intron ([1]; RCC4-GFP, assay 3): 0.0971
Flag ChIP at CDKN1A-RE1 ([1]; RCC4-PBRM1-BD4*, assay 1): 0.1332
Flag ChIP at CDKN1A-TSS ([1]; RCC4-PBRM1-BD4*, assay 1): 0.204
Flag ChIP at CDKN1A-intron ([1]; RCC4-PBRM1-BD4*, assay 1): 0.0594
Flag ChIP at CDKN1A-RE1 ([1]; RCC4-PBRM1-BD4*, assay 2): 0.168
Flag ChIP at CDKN1A-TSS ([1]; RCC4-PBRM1-BD4*, assay 2): 0.1814
Flag ChIP at CDKN1A-intron ([1]; RCC4-PBRM1-BD4*, assay 2): 0.0845
Flag ChIP at CDKN1A-RE1 ([1]; RCC4-PBRM1-BD4*, assay 3): 0.1906
Flag ChIP at CDKN1A-TSS ([1]; RCC4-PBRM1-BD4*, assay 3): 0.171
Flag ChIP at CDKN1A-intron ([1]; RCC4-PBRM1-BD4*, assay 3): 0.0675
Flag ChIP at CDKN1A-RE1 ([1]; RCC4-PBRM1, assay 1): 0.118
Flag ChIP at CDKN1A-TSS ([1]; RCC4-PBRM1, assay 1): 0.1053
Flag ChIP at CDKN1A-intron ([1]; RCC4-PBRM1, assay 1): 0.1192
Flag ChIP at CDKN1A-RE1 ([1]; RCC4-PBRM1, assay 2): 0.114
Flag ChIP at CDKN1A-TSS ([1]; RCC4-PBRM1, assay 2): 0.1575
Flag ChIP at CDKN1A-intron ([1]; RCC4-PBRM1, assay 2): 0.074
Flag ChIP at CDKN1A-RE1 ([1]; RCC4-PBRM1, assay 3): 0.1263
Flag ChIP at CDKN1A-TSS ([1]; RCC4-PBRM1, assay 3): 0.1136
Flag ChIP at CDKN1A-intron ([1]; RCC4-PBRM1, assay 3): 0.066
PBRM1 and exogenous p53 protein levels ([2]; H1299, etoposide 50 μM or bleomycin 10 μg/ml): neither the PBRM1 nor the exogenous p53 levels changed
PBRM1-p53 interaction ([2]; H1299 co-transfected with PBRM1 and p53, etoposide 50 μM): enhanced
endogenous PBRM1 associated with endogenous p53 [3]: increased endogenous p53 associated with more endogenous PBRM1
